Experimental data from patent US10253052B2, “HBED-bisphosphonates, radiometal conjugates and their use as theranostic agents” (Five Eleven Pharma Inc., priority 2015, dated 2019).
Values joined by “and” are separate entries in the source; they are usually repeats but may differ in a detail not shown here. Equal entries are not always repeated. “Also recorded” adds a separate entry of the source.

Key:
[1] = In vivo biodistribution in mice; design: species or system normal CD-1 male mice; details: for bone to blood ratio / bone to muscle ratio / Biodistribution: Blood / Biodistribution: Bone / Biodistribution: Brain / Biodistribution: Heart / Biodistribution: Kidney / Biodistribution: Liver / Biodistribution: Lung / Biodistribution: Muscle / Biodistribution: Pancreas / Biodistribution: Skin / Biodistribution: Spleen: iv
Method in brief: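 Normal male CD-1 mice (25-30 g) received 20-30 μCi of ^68Ga-labelled tracer or [^18F]NaF intravenously and were sacrificed at 2, 30, 60 and 120 min. Harvested organs, with tibia and femur as bone, were weighed and gamma-counted; uptake is expressed as % ID/g wet tissue.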

[2] = Micro-PET imaging in normal mice; format: in vivo, normal CD-1 male mice; details: 15 min scan at 60 min post-injection
Description: [^68Ga]1a, [^68Ga]BPAMD and [^18F]NaF were tested in normal CD-1 male mice. [^68Ga]1g was tested in PSMA expressing LNCaP tumor bearing nude mice. Mice received 300-500 uCi radiotracer through a tail vein injection. PET imaging was performed under isoflurane anaesthesia (2% isoflurane, 1.5 L/min oxygen). The microPET imaging was performed with a small animal PET (Mosaic by Phillips, USA). During PET measurements, the animals were placed in the prone position. At 60 min post injection of the radiotracer, data acquisition was performed for 15 min.

[3] = In vitro binding to hydroxyapatite; details: 20 mg hydroxyapatite in saline, 10 min at room temperature
Method in brief: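 Hydroxyapatite was pre-incubated 24 h in isotonic saline, then ^68Ga-labelled compound (1 μCi) was added and incubated 10 min at room temperature. After centrifugation and two saline washes, gamma counting of supernatants and solid gave percent ^68Ga bound to hydroxyapatite.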

O=C([O-])CN(CCN(CC(=O)[O-])Cc1cc(CCC(=O)NC(P(=O)(O)O)P(=O)(O)O)ccc1[O-])Cc1cc(CCC(=O)O)ccc1[O-].[68Ga+3] [[^68Ga]1a]
bone to blood ratio ([1]; 2 min): 0.9
bone to muscle ratio ([1]; 2 min): 4.8
Biodistribution: Blood ([1]; 2 min post injection): 9.39 ± 0.93 % dose/g
Biodistribution: Bone ([1]; 2 min post injection): 8.60 ± 0.85 % dose/g
Biodistribution: Brain ([1]; 2 min post injection): 0.31 ± 0.10 % dose/g
Biodistribution: Heart ([1]; 2 min post injection): 3.28 ± 0.13 % dose/g
Biodistribution: Kidney ([1]; 2 min post injection): 31.2 ± 1.92 % dose/g
Biodistribution: Liver ([1]; 2 min post injection): 1.95 ± 0.15 % dose/g
Biodistribution: Lung ([1]; 2 min post injection): 4.28 ± 0.21 % dose/g
Biodistribution: Muscle ([1]; 2 min post injection): 1.80 ± 0.16 % dose/g
Biodistribution: Pancreas ([1]; 2 min post injection): 1.58 ± 0.10 % dose/g
Biodistribution: Skin ([1]; 2 min post injection): 2.18 ± 0.28 % dose/g
Biodistribution: Spleen ([1]; 2 min post injection): 1.89 ± 0.20 % dose/g
bone to blood ratio ([1]; 30 min): 36
bone to muscle ratio ([1]; 30 min): 96
Biodistribution: Blood ([1]; 30 min (0.5 hr) post injection): 0.45 ± 0.10 % dose/g
Biodistribution: Bone ([1]; 30 min (0.5 hr) post injection): 16.0 ± 1.22 % dose/g
Biodistribution: Brain ([1]; 30 min (0.5 hr) post injection): 0.02 ± 0.01 % dose/g
Biodistribution: Heart ([1]; 30 min (0.5 hr) post injection): 0.22 ± 0.02 % dose/g
Biodistribution: Kidney ([1]; 30 min (0.5 hr) post injection): 1.54 ± 0.29 % dose/g
Biodistribution: Liver ([1]; 30 min (0.5 hr) post injection): 0.32 ± 0.20 % dose/g
Biodistribution: Lung ([1]; 30 min (0.5 hr) post injection): 0.38 ± 0.03 % dose/g
Biodistribution: Muscle ([1]; 30 min (0.5 hr) post injection): 0.17 ± 0.03 % dose/g
Biodistribution: Pancreas ([1]; 30 min (0.5 hr) post injection): 0.30 ± 0.27 % dose/g
Biodistribution: Skin ([1]; 30 min (0.5 hr) post injection): 0.42 ± 0.12 % dose/g
Biodistribution: Spleen ([1]; 30 min (0.5 hr) post injection): 0.17 ± 0.01 % dose/g
bone to blood ratio ([1]; 60 min): 118
Biodistribution: Blood ([1]; 60 min (1 hr) post injection): 0.20 ± 0.06 % dose/g
Biodistribution: Bone ([1]; 60 min (1 hr) post injection): 23.5±1.4 % dose/g and 23.5 ± 1.42 % dose/g
Biodistribution: Brain ([1]; 60 min (1 hr) post injection): 0.02 ± 0.01 % dose/g
Biodistribution: Heart ([1]; 60 min (1 hr) post injection): 0.12 ± 0.02 % dose/g
Biodistribution: Kidney ([1]; 60 min (1 hr) post injection): 1.63 ± 0.71 % dose/g
Biodistribution: Liver ([1]; 60 min (1 hr) post injection): 0.17 ± 0.01 % dose/g
Biodistribution: Lung ([1]; 60 min (1 hr) post injection): 0.21 ± 0.03 % dose/g
Biodistribution: Muscle ([1]; 60 min (1 hr) post injection): 0.08 ± 0.02 % dose/g
Biodistribution: Pancreas ([1]; 60 min (1 hr) post injection): 0.09 ± 0.02 % dose/g
Biodistribution: Skin ([1]; 60 min (1 hr) post injection): 0.19 ± 0.05 % dose/g
Biodistribution: Spleen ([1]; 60 min (1 hr) post injection): 0.10 ± 0.02 % dose/g
bone to blood ratio ([1]; 120 min): 320
bone to muscle ratio ([1]; 120 min): 447
Biodistribution: Blood ([1]; 120 min post injection): 0.07 ± 0.03 % dose/g
Biodistribution: Bone ([1]; 120 min post injection): 23.9 ± 1.99 % dose/g
Biodistribution: Brain ([1]; 120 min post injection): 0.01 ± 0.00 % dose/g
Biodistribution: Heart ([1]; 120 min post injection): 0.07 ± 0.01 % dose/g
Biodistribution: Kidney ([1]; 120 min post injection): 0.92 ± 0.10 % dose/g
Biodistribution: Liver ([1]; 120 min post injection): 0.14 ± 0.02 % dose/g
Biodistribution: Lung ([1]; 120 min post injection): 0.12 ± 0.03 % dose/g
Biodistribution: Muscle ([1]; 120 min post injection): 0.05 ± 0.01 % dose/g
Biodistribution: Pancreas ([1]; 120 min post injection): 0.05 ± 0.01 % dose/g
Biodistribution: Skin ([1]; 120 min post injection): 0.13 ± 0.03 % dose/g
Biodistribution: Spleen ([1]; 120 min post injection): 0.09 ± 0.03 % dose/g
Biodistribution result in words (organ uptake, retention, excretion) ([1]; normal mice after iv injection): excellent bone uptake and fast kidney excretion; also recorded: excellent bone uptake and retention
Micro-PET localization (in words) [2]: localized in the spines of mice
Hydroxyapatite Binding (%) [3]: 92.3 ± 1.1%
